The values below come from ChEMBL document CHEMBL1782033, “Dimeric prenylated C6-C3 compounds from the stem bark of Illicium oligandrum” (2011).

This experiment can be described thus: Antiinflammatory activity in rat Polymorphonuclear leukocytes assessed as inhibition of platelet-activating factor-induced beta-glucuronidase release at 10 uM. Type of experiment: functional.
`C=CC[C@]1(O)C(=O)C=C2O[C@H](C(C)(C)O)C[C@@]23[C@@H]2C(=O)[C@@](O)(CC=C)[C@@H](C4=C2OC(C)(C)[C@H](O)C4)[C@H]31` [ILLICIDIONE A]: the inhibition – broadly, the percentage by which the read-out fell short of the control – at 10 µM amounted to 38.2%.

`C[C@@H]1C(=O)O[C@H]2[C@H](O)[C@@]34[C@H]5C[C@@H](C(C)(C)C)[C@]36[C@@H](OC(=O)[C@@H]6O)O[C@@]4(C(=O)O5)[C@@]12O` [GINKOLIDE B]: the inhibition at 10 µM came out at 83.5%.

As to `C=CCC1=C[C@]2(O)C[C@H](C(C)(C)O)OC2=C(CC2=C3O[C@@H](C(C)(C)O)C[C@@]3(O)C=C(CC=C)C2=O)C1=O` [ILLICIDIONE B], the inhibition at 10 µM was 18.6%.

In the case of `C=CC[C@H]1C[C@]2(O)C[C@H](C(C)(C)O)OC2=C(CC2=C3O[C@@H](C(C)(C)O)C[C@@]3(O)C[C@H](CC=C)C2=O)C1=O` [ILLICIDIONE C], the inhibition at 10 µM was 25.3%.
